In patent US11214594B2, “Antimicrobial peptide having synergistic antibacterial effect with antibiotics on multidrug resistant bacteria, and use thereof” (priority 2016, dated 2022):
In brackets after ≈: the same amount, converted by molar mass. Where a SMILES comes first, the peptide text is derived from it.

Tests used:
[1] = test system: gram-negative bacteria; test: MIC, summary statements for gram-negative bacteria; type: cell-based; settings: gram-negative bacteria
Experimental: For the antibacterial activity, a minimal inhibitory concentration (MIC) of a peptide in which fungus bodies were not split in an MH medium with sufficient nutrients was measured.
Specifically, the strains described in the following [Table 2] were purchased and diluted with an MH medium such that the number of bacteria was 2×10^6 colony-forming units (CFUs), 100 μl of each of the diluted strains was aliquoted into a 96-well microtiter plate, and then 100 μl of a peptide solution diluted with the MH medium (solution diluted stepwise at 2: 1) was added to each well.

[2] = test system: MRSA 3114; type: cell-based, Staphylococcus aureus; settings: 3114
Method in brief: (§1)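 Broth microdilution in MH medium: bacterial strains diluted to 2×10^6 CFU were mixed with equal volumes of peptide serially diluted twofold in MH medium.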

[3] = test system: MRSA 3126; type: cell-based, Staphylococcus aureus; settings: 3126
Method in brief: as §1

[4] = test system: A. baumannii; test: microbe, parasite or virus in culture; type: cell-based, Acinetobacter baumannii; settings: for Antibacterial activity relative to PapMA-1: A. baumannii and antibiotic-resistant strains thereof
Method in brief: as §1

[5] = test system: MDRAB 12035; test: microbe, parasite or virus in culture; type: cell-based, Acinetobacter baumannii
Method in brief: as §1

[6] = test system: S. aureus; test: microbe, parasite or virus in culture; type: cell-based, Staphylococcus aureus
Method in brief: as §1

[7] = test system: S. typhimurium; test: microbe, parasite or virus in culture; type: cell-based, Salmonella typhimurium
Method in brief: as §1

[8] = test system: MDRPA 2002; type: cell-based, Pseudomonas aeruginosa
Method in brief: as §1

[9] = test system: MDRST 8007; test: Minimal inhibitory concentration (MIC), single agent; type: cell-based, Salmonella typhimurium; settings: agent alone
Method in brief: as §1

[10] = test system: B. subtilis; test: microbe, parasite or virus in culture; type: cell-based, Bacillus subtilis
Method in brief: as §1

[11] = test system: E. coli; test: MIC of antibiotic during combined treatment with antimicrobial peptide; type: cell-based, Escherichia coli; settings: for Synergistic effect of antibacterial activity with existing antibiotics compared with PapMA-1: E. coli and MDREC1229; for Antibiotic MIC, Erythromycin / Antibiotic MIC, Linezolid / Antibiotic MIC, Vancomycin: E. coli
Method in brief: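 Checkerboard-type MIC of peptide–antibiotic mixtures in MH medium: the antibiotic was serially diluted in MH medium and added to wells, then the reversed arrangement was also tested.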

[12] = test system: MDREC 1229; test: microbe, parasite or virus in culture; type: cell-based, Escherichia coli
Method in brief: as §1

[13] = test system: E. coli; test: microbe, parasite or virus in culture; type: cell-based, Escherichia coli; settings: 16 h
Method in brief: as §1

[14] = erythromycin combined with peptide at 1 μg/ml
[15] = erythromycin combined with peptide at 2 μg/ml
[16] = erythromycin combined with peptide at 4 μg/ml
[17] = erythromycin combined with peptide at 6 μg/ml
[18] = erythromycin combined with peptide at 8 μg/ml
[19] = erythromycin combined with peptide at 16 μg/ml
[20] = erythromycin combined with peptide at 32 μg/ml
[21] = erythromycin combined with peptide at 64 μg/ml
[22] = linezolid combined with peptide at 1 μg/ml
[23] = linezolid combined with peptide at 2 μg/ml
[24] = linezolid combined with peptide at 4 μg/ml
[25] = linezolid combined with peptide at 6 μg/ml
[26] = linezolid combined with peptide at 8 μg/ml
[27] = linezolid combined with peptide at 16 μg/ml
[28] = linezolid combined with peptide at 32 μg/ml
[29] = linezolid combined with peptide at 64 μg/ml
[30] = vancomycin combined with peptide at 1 μg/ml
[31] = vancomycin combined with peptide at 2 μg/ml
[32] = vancomycin combined with peptide at 4 μg/ml
[33] = vancomycin combined with peptide at 6 μg/ml
[34] = vancomycin combined with peptide at 8 μg/ml
[35] = vancomycin combined with peptide at 16 μg/ml
[36] = vancomycin combined with peptide at 32 μg/ml
[37] = vancomycin combined with peptide at 64 μg/ml

Compound | Antibacterial activity (in words) [1] | Minimal inhibitory concentration MIC [2] [µg/mL] | Minimal inhibitory concentration MIC [3] [µg/mL] | Minimal inhibitory concentration MIC [4] [µg/mL] | Peptide MIC, peptide alone [4] [µg/mL] | Antibacterial activity relative to PapMA-1 [4] [times] | Minimal inhibitory concentration MIC [5] [µg/mL] | Peptide MIC, peptide alone [5] [µg/mL] | Minimal inhibitory concentration MIC [6] [µg/mL] | Minimal inhibitory concentration MIC [7] [µg/mL] | Minimal inhibitory concentration MIC [8] [µg/mL] | Minimal inhibitory concentration MIC [9] [µg/mL] | Minimal inhibitory concentration MIC [10] [µg/mL] | Synergistic effect of antibacterial activity with existing antibiotics compared with PapMA-1 [11] | Antibiotic MIC, Erythromycin [11, 14] [µg/mL] | Antibiotic MIC, Erythromycin [11, 15] [µg/mL] | Antibiotic MIC, Erythromycin [11, 16] [µg/mL] | Antibiotic MIC, Erythromycin [11, 17] [µg/mL] | Antibiotic MIC, Erythromycin [11, 18] [µg/mL] | Antibiotic MIC, Erythromycin [11, 19] [µg/mL] | further results
CC[C@H](C)[C@H](NC(=O)[C@H](CCCCN)NC(=O)[C@H](Cc1c[nH]c2ccccc12)NC(=O)[C@@H](N)CCCNC(=N)N)C(=O)N[C@@H](Cc1ccccc1)C(=O)N[C@@H](CCCCN)C(=O)N[C@@H](CCCCN)C(=O)N[C@H](C(=O)N1CCC[C@H]1C(=O)N[C@@H](CCCCN)C(=O)N[C@@H](Cc1ccccc1)C(=O)N[C@@H](CC(C)C)C(=O)N[C@@H](Cc1c[nH]cn1)C(=O)N[C@@H](CO)C(=O)N[C@@H](Cc1c[nH]c2ccccc12)C(=O)N[C@@H](CCCCN)C(=O)N[C@@H](CCCCN)C(=O)N[C@@H](Cc1ccccc1)C(N)=O)[C@@H](C)CC [PapMA-3, RWK IFK KIP KFL HSW KKF-NH2] (H-RWKIFKKIPKFLHSWKKF-NH2; N-terminus assumed) | comparable to papiliocin or melittin | >128 | >128 | 16 (≈ 6.62 µM) | 16 | 4 | 16 (≈ 6.62 µM) | 16 | >128 | 32 (≈ 13.2 µM) | 16 (≈ 6.62 µM) | 32 (≈ 13.2 µM) | >128 | level similar to that of the PapMA-1 peptide | 64 | 32 | 16 | 4 | 1 | 0.125 | Antibiotic MIC, Erythromycin [11, 20]: 0 µg/mL; Antibiotic MIC, Erythromycin [11, 21]: 0 µg/mL; Antibiotic MIC, Linezolid [11, 22]: 128 µg/mL; Antibiotic MIC, Linezolid [11, 23]: 64 µg/mL; Antibiotic MIC, Linezolid [11, 24]: 32 µg/mL; Antibiotic MIC, Linezolid [11, 25]: 32 µg/mL; Antibiotic MIC, Linezolid [11, 26]: 16 µg/mL; Antibiotic MIC, Linezolid [11, 27]: 2 µg/mL; Antibiotic MIC, Linezolid [11, 28]: 0 µg/mL; Antibiotic MIC, Linezolid [11, 29]: 0 µg/mL; Antibiotic MIC, Vancomycin [11, 30]: >128 µg/mL; Antibiotic MIC, Vancomycin [11, 31]: >128 µg/mL; Antibiotic MIC, Vancomycin [11, 32]: >128 µg/mL; Antibiotic MIC, Vancomycin [11, 33]: 128 µg/mL; Antibiotic MIC, Vancomycin [11, 34]: 32 µg/mL; Antibiotic MIC, Vancomycin [11, 35]: 8 µg/mL; Antibiotic MIC, Vancomycin [11, 36]: 0 µg/mL; Antibiotic MIC, Vancomycin [11, 37]: 0 µg/mL; Minimal inhibitory concentration MIC [12]: 32 µg/mL (≈ 13.2 µM); Minimal inhibitory concentration MIC [13]: 32 µg/mL (≈ 13.2 µM)
CC[C@H](C)[C@H](NC(=O)[C@H](CCCCN)NC(=O)[C@H](Cc1c[nH]c2ccccc12)NC(=O)[C@@H](N)CCCNC(=N)N)C(=O)N[C@@H](Cc1ccccc1)C(=O)N[C@@H](CCCCN)C(=O)N[C@@H](CCCCN)C(=O)N[C@H](C(=O)N1CCC[C@H]1C(=O)N[C@@H](CCCCN)C(=O)N[C@@H](Cc1ccccc1)C(=O)N[C@@H](CC(C)C)C(=O)N[C@@H](Cc1c[nH]cn1)C(=O)N[C@@H](CO)C(=O)N[C@@H](Cc1c[nH]c2ccccc12)C(=O)N[C@@H](CCCCN)C(=O)N[C@@H](CCCCN)C(=O)N[C@@H](Cc1c[nH]c2ccccc12)C(N)=O)[C@@H](C)CC [PapMA-4, RWK IFK KIP KFL HSW KKW-NH2] (H-RWKIFKKIPKFLHSWKKW-NH2; N-terminus assumed) | comparable to papiliocin or melittin | >128 | >128 | 16 (≈ 6.51 µM) | 16 | 4 | 16 (≈ 6.51 µM) | 16 | >128 | 32 (≈ 13 µM) | 16 (≈ 6.51 µM) | 32 (≈ 13 µM) | >128 | level similar to that of the PapMA-1 peptide | 64 | 32 | 16 | 8 | 8 | 0 | Antibiotic MIC, Erythromycin [11, 20]: 0 µg/mL; Antibiotic MIC, Erythromycin [11, 21]: 0 µg/mL; Antibiotic MIC, Linezolid [11, 22]: 128 µg/mL; Antibiotic MIC, Linezolid [11, 23]: 64 µg/mL; Antibiotic MIC, Linezolid [11, 24]: 32 µg/mL; Antibiotic MIC, Linezolid [11, 25]: 32 µg/mL; Antibiotic MIC, Linezolid [11, 26]: 16 µg/mL; Antibiotic MIC, Linezolid [11, 27]: 0 µg/mL; Antibiotic MIC, Linezolid [11, 28]: 0 µg/mL; Antibiotic MIC, Linezolid [11, 29]: 0 µg/mL; Antibiotic MIC, Vancomycin [11, 30]: >128 µg/mL; Antibiotic MIC, Vancomycin [11, 31]: >128 µg/mL; Antibiotic MIC, Vancomycin [11, 32]: >128 µg/mL; Antibiotic MIC, Vancomycin [11, 33]: 128 µg/mL; Antibiotic MIC, Vancomycin [11, 34]: 32 µg/mL; Antibiotic MIC, Vancomycin [11, 35]: 0 µg/mL; Antibiotic MIC, Vancomycin [11, 36]: 0 µg/mL; Antibiotic MIC, Vancomycin [11, 37]: 0 µg/mL; Minimal inhibitory concentration MIC [12]: 32 µg/mL (≈ 13 µM); Minimal inhibitory concentration MIC [13]: 16 µg/mL (≈ 6.51 µM)
